Data published in patent US10793580B2, “Substituted pyrazoloazepin-8-ones and their use as phosphodiesterase inhibitors” (LEO Pharma A/S, priority 2016, dated 2020).

target: human PDE4D catalytic domain (Homo sapiens (Human), UniProt Q08499); assay: PDE4 Assay (TR-FRET, FAM-cAMP cleavage); type: biochemical; details: Table 16, Examples 277-296; read-out: PDE4 IC50 range
In short: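 PDE4D catalytic domain (S380-L740) incubated briefly with unlabelled cAMP plus FAM-cAMP and titrated compound. Reaction stopped with binding buffer holding metal-ion nanoparticles that bind AMP phospho groups and Tb donor, and AMP formation read by TR-FRET. IC50 versus controls, reported as ranges (nM).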

Chain of human PDE4D catalytic domain (Q08499 380-740): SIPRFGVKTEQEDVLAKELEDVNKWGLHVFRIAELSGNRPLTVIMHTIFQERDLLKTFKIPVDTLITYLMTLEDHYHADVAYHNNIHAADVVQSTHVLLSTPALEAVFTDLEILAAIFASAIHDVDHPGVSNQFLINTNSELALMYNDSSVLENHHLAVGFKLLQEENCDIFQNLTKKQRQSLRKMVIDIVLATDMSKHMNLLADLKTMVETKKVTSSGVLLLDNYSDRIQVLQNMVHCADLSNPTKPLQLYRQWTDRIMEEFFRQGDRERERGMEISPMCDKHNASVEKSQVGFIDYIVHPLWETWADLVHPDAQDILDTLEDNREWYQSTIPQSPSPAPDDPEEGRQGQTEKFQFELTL

SMILES | IC50
CCn1nc(C[C@@H](C)COC(=O)c2cnn(C)c2)c2c1C(=O)NCC1(CCOCC1)C2 [Example 279, [(2R)-3-(1-ethyl-8-oxo-spiro[6,7-dihydro-4H-pyrazolo[3,4-c]azepine-5,4′-tetrahydropyran]-3-yl)-2-methyl-propyl] 1-methylpyrazole-4-carboxylate] | < 100 nM

same assay, conditions: Table 17, Examples 297-316; read-out: PDE4 IC50 range

SMILES | IC50
CCn1nc(CC(C)(C)COC(=O)c2cc(C)n(C)n2)c2c1C(=O)NCC1(CCOCC1)C2 [Example 309, [3-(1-ethyl-8-oxo-spiro[6,7-dihydro-4H-pyrazolo[3,4-c]azepine-5,4′-tetrahydro-pyran]-3-yl)-2,2-dimethyl-propyl] 1,5-dimethylpyrazole-3-carboxylate] | < 100 nM

same assay, conditions: human PDE4D catalytic domain (UniProt Q08499 [S380-L740]); 50% inhibition of substrate cleavage; read-out: PDE4 IC50 range

SMILES | IC50
CCn1ccc(C(=O)OCCCc2nn(CC)c3c2CC2(CCOCC2)CNC3=O)n1 [Example 248, 3-(1-ethyl-8-oxo-spiro[6,7-dihydro-4H-pyrazolo[3,4-c]azepine-5,4′-tetrahydropyran]-3-yl)propyl 1-ethylpyrazole-3-carboxylate] | < 100 nM
CCn1nc(CCCOC(=O)c2ccc(OC)cc2F)c2c1C(=O)NCC1(CCOCC1)C2 [Example 38, 3-(1-ethyl-8-oxo-spiro[6,7-dihydro-4H-pyrazolo[3,4-c]azepine-5,4′-tetrahydropyran]-3-yl)propyl 2-fluoro-4-methoxy-benzoate] | < 100 nM
CCn1nc(CCCCOC(=O)c2coc(C)n2)c2c1C(=O)NCC1(CCOCC1)C2 [Example 266, 4-(1-ethyl-8-oxo-spiro[6,7-dihydro-4H-pyrazolo[3,4-c]azepine-5,4′-tetrahydropyran]-3-yl)butyl 2-methyloxazole-4-carboxylate] | < 100 nM
CCn1nc(C[C@@H](C)COC(=O)c2ccc(F)cc2)c2c1C(=O)NCC1(CCOCC1)C2 [Example 145, [(2R)-3-(1-ethyl-8-oxo-spiro[6,7-dihydro-4H-pyrazolo[3,4-c]azepine-5,4′-tetrahydropyran]-3-yl)-2-methyl-propyl] 4-fluorobenzoate] | < 100 nM
CCc1ccc(C(=O)OCC(C)(C)Cc2nn(CC)c3c2CC2(CCOCC2)CNC3=O)cc1 [Example 195, [3-(1-ethyl-8-oxo-spiro[6,7-dihydro-4H-pyrazolo[3,4-c]azepine-5,4′-tetrahydropyran]-3-yl)-2,2-dimethyl-propyl] 4-ethylbenzoate] | < 100 nM
CCn1nc(CC(C)(C)COC(=O)c2cccc(C(N)=O)c2)c2c1C(=O)NCC1(CCOCC1)C2 [Example 227, [3-(1-ethyl-8-oxo-spiro[6,7-dihydro-4H-pyrazolo[3,4-c]azepine-5,4′-tetrahydropyran]-3-yl)-2,2-dimethyl-propyl] 3-carbamoylbenzoate] | < 100 nM
CCn1nc(C[C@@H](C)COC(=O)CCS(C)(=O)=O)c2c1C(=O)NCC1(CCOCC1)C2 [Example 152, [(2R)-3-(1-ethyl-8-oxo-spiro[6,7-dihydro-4H-pyrazolo[3,4-c]azepine-5,4′-tetrahydropyran]-3-yl)-2-methyl-propyl] 3-methylsulfonylpropanoate] | < 100 nM
CCn1nc(CC(C)(C)COC(=O)c2ccc(S(=O)(=O)N3CCOCC3)cc2)c2c1C(=O)NCC1(CCOCC1)C2 [Example 213, [3-(1-ethyl-8-oxo-spiro[6,7-dihydro-4H-pyrazolo[3,4-c]azepine-5,4′-tetrahydropyran]-3-yl)-2,2-dimethyl-propyl] 4-morpholinosulfonylbenzoate] | < 100 nM
CCn1nc(CCCOC(=O)c2cc(OC)ccc2Cl)c2c1C(=O)NCC1(CCOCC1)C2 [Example 56, 3-(1-ethyl-8-oxo-spiro[6,7-dihydro-4H-pyrazolo[3,4-c]azepine-5,4′-tetrahydropyran]-3-yl)propyl 2-chloro-5-methoxy-benzoate] | < 100 nM
CCn1nc(C[C@@H](C)COC(=O)c2cccc(S(=O)(=O)N3CCCC3)c2)c2c1C(=O)NCC1(CCOCC1)C2 [Example 163, [(2R)-3-(1-ethyl-8-oxo-spiro[6,7-dihydro-4H-pyrazolo[6,7-c]azepine-5,4′-tetrahydropyran]-3-yl)-2-methyl-propyl] 3-pyrrolidin-1-ylsulfonylbenzoate] | < 100 nM
CCn1nc(CCCOC(=O)c2ccc(Cl)cc2)c2c1C(=O)NCC1(CCOCC1)C2 [Example 22, 3-(1-ethyl-8-oxo-spiro[6,7-dihydro-4H-pyrazolo[3,4-c]azepine-5,4′-tetrahydropyran]-3-yl)propyl 4-chlorobenzoate] | < 100 nM
CCn1nc(CCCOC(=O)c2ccc(Cl)c(F)c2)c2c1C(=O)NCC1(CCOCC1)C2 [Example 48, 3-(1-ethyl-8-oxo-spiro[6,7-dihydro-4H-pyrazolo[3,4-c]azepine-5,4′-tetrahydropyran]-3-yl)propyl 4-chloro-3-fluoro-benzoate] | < 100 nM
CCn1nc(CCOC(=O)C2CCOCC2)c2c1C(=O)NCC1(CCOCC1)C2 [Example 276, 2-(1-ethyl-8-oxo-spiro[6,7-dihydro-4H-pyrazolo[3,4-c]azepine-5,4′-tetrahydropyran]-3-yl)ethyl tetrahydropyran-4-carboxylate] | 100 to 500 nM
CCn1nc(CC(C)(C)COC(=O)c2ccc(C(=O)N3CCN(C(C)=O)CC3)cc2)c2c1C(=O)NCC1(CCOCC1)C2 [Example 225, [3-(1-ethyl-8-oxo-spiro[6,7-dihydro-4H-pyrazolo[3,4-c]azepine-5,4'-tetrahydropyran]-3-yl)-2,2-dimethyl-propyl] 4-(4-acetylpiperazine-1-carbonyl)benzoate] | < 100 nM
CCn1nc(CCCOC(=O)c2ccc(C)cc2C)c2c1C(=O)NCC1(CCOCC1)C2 [Example 14, 3-(1-ethyl-8-oxo-spiro[6,7-dihydro-4H-pyrazolo[3,4-c]azepine-5,4′-tetrahydropyran]-3-yl)propyl 2,4-dimethylbenzoate] | < 100 nM
CCn1nc(CC(C)(C)COC(=O)c2ccc(S(=O)(=O)NC)cc2)c2c1C(=O)NCC1(CCOCC1)C2 [Example 205, [3-(1-ethyl-8-oxo-spiro[6,7-dihydro-4H-pyrazolo[3,4-c]azepine-5,4′-tetrahydropyran]-3-yl)-2,2-dimethyl-propyl] 4-(methylsulfamoyl)benzoate] | < 100 nM
CCn1nc(CCOC(=O)c2ccc(C)cc2)c2c1C(=O)NCC1(CCOCC1)C2 [Example 135, 2-(1-ethyl-8-oxo-spiro[6,7-dihydro-4H-pyrazolo[3,4-c]azepine-5,4′-tetrahydropyran]-3-yl)ethyl 4-methylbenzoate] | < 100 nM
CCn1nc(CC(C)(C)COC(=O)c2ccc(C(N)=O)cc2)c2c1C(=O)NCC1(CCOCC1)C2 [Example 218, [3-(1-ethyl-8-oxo-spiro[6,7-dihydro-4H-pyrazolo[3,4-c]azepine-5,4′-tetrahydropyran]-3-yl)-2,2-dimethyl-propyl] 4-carbamoylbenzoate] | < 100 nM
CCn1nc(C[C@@H](C)COC(=O)c2cccc(C(=O)N3CCN(C)CC3)c2)c2c1C(=O)NCC1(CCOCC1)C2 [Example 184, [(2R)-3-(1-ethyl-8-oxo-spiro[6,7-dihydro-4H-pyrazolo[3,4-c]azepine-5,4′-tetrahydropyran]-3-yl)-2-methyl-propyl] 3-(4-methylpiperazine-1-carbonyl)benzoate] | < 100 nM
CCn1nc(C[C@@H](C)COC(=O)c2cccc(C(=O)NC)c2)c2c1C(=O)NCC1(CCOCC1)C2 [Example 179, [(2R)-3-(1-ethyl-8-oxo-spiro[6,7-dihydro-4H-pyrazolo[3,4-c]azepine-5,4′-tetrahydropyran]-3-yl)-2-methyl-propyl] 3-(methylcarbamoyl)benzoate] | < 100 nM
CCn1nc(CCCOC(=O)C2CCS(=O)(=O)CC2)c2c1C(=O)NCC1(CCOCC1)C2 [Example 262, 3-(1-ethyl-8-oxo-spiro[6,7-dihydro-4H-pyrazolo[3,4-c]azepine-5,4′-tetrahydro-pyran]-3-yl)propyl 1,1-dioxothiane-4-carboxylate] | < 100 nM
CCn1nc(CCCOC(=O)c2ccc(C(F)F)cc2)c2c1C(=O)NCC1(CCOCC1)C2 [Example 45, 3-(1-ethyl-8-oxo-spiro[6,7-dihydro-4H-pyrazolo[3,4-c]azepine-5,4′-tetrahydropyran]-3-yl)propyl 4-(difluoromethyl)benzoate] | < 100 nM
CCn1nc(CCCOC(=O)c2cccc(C(=O)N3CCCC3)c2)c2c1C(=O)NCC1(CCOCC1)C2 [Example 116, 3-(1-ethyl-8-oxo-spiro[6,7-dihydro-4H-pyrazolo[3,4-c]azepine-5,4′-tetrahydropyran]-3-yl)propyl 3-(pyrrolidine-1-carbonyl)benzoate] | < 100 nM
CCn1nc(CCCOC(=O)C2CCN(C)CC2)c2c1C(=O)NCC1(CCOCC1)C2 [Example 256, 3-(1-ethyl-8-oxo-spiro[6,7-dihydro-4H-pyrazolo[3,4-c]azepine-5,4′-tetrahydropyran]-3-yl)propyl 1-methylpiperidine-4-carboxylate] | 100 to 500 nM
CCn1nc(CCCOC(=O)c2cc(F)ccc2F)c2c1C(=O)NCC1(CCOCC1)C2 [Example 25, 3-(1-ethyl-8-oxo-spiro[6,7-dihydro-4H-pyrazolo[3,4-c]azepine-5,4′-tetrahydropyran]-3-yl)propyl 2,5-difluorobenzoate] | < 100 nM
CCn1nc(CCCOC(=O)c2cc(C#N)ccc2F)c2c1C(=O)NCC1(CCOCC1)C2 [Example 31, 3-(1-ethyl-8-oxo-spiro[6,7-dihydro-4H-pyrazolo[3,4-c]azepine-5,4′-tetrahydropyran]-3-yl)propyl 5-cyano-2-fluoro-benzoate] | < 100 nM
CCn1nc(C[C@@H](C)COC(=O)c2ccc(S(=O)(=O)C(C)C)cc2)c2c1C(=O)NCC1(CCOCC1)C2 [Example 160, [(2R)-3-(1-ethyl-8-oxo-spiro[6,7-dihydro-4H-pyrazolo[3,4-c]azepine-5,4′-tetrahydropyran]-3-yl)-2-methyl-propyl] 4-isopropylsulfonylbenzoate] | < 100 nM
